# Measured values reported in ChEMBL document CHEMBL1154148, “Ascomycones A-C, heptaketide metabolites from an unidentified ascomycete” (J Nat Prod, 2008).
# Activity calls are given as the source filed them. No cut-off for these calls is given here.
# Columns and labels:
# Caenorhabditis elegans = assay: Nematicidal activity against Caenorhabditis elegans at 100 ug/ml; format: functional, organism-based
# Botrytis cinerea = assay: Antimicrobial activity against Botrytis cinerea assessed as inhibition of conidial germination after 16 hrs by inverted microscopic analysis; format: functional
# Penicillium chrysogenum = assay: Antimicrobial activity against Penicillium notatum assessed as inhibition of conidial germination after 16 hrs by inverted microscopic analysis; format: functional
# Paecilomyces variotii = assay: Antimicrobial activity against Paecilomyces variotii assessed as inhibition of conidial germination after 16 hrs by inverted microscopic analysis; format: functional
# Rhizomucor miehei = assay: Antimicrobial activity against Mucor miehei assessed as inhibition of conidial germination after 16 hrs by inverted microscopic analysis; format: functional
# Brevibacillus brevis = assay: Antimicrobial activity against Bacillus brevis at 50 ug/disk by agar diffusion assay; format: functional; conditions: read-out: IZ
# Bacillus subtilis = assay: Antimicrobial activity against Bacillus subtilis at 50 ug/disk by agar diffusion assay; format: functional; conditions: read-out: IZ
# Eremothecium coryli = assay: Antimicrobial activity against Nematospora coryli at 50 ug/disk by agar diffusion assay; format: functional; conditions: read-out: IZ
# Escherichia coli = assay: Antimicrobial activity against Escherichia coli K-12 by serial dilution test; format: functional
# [1] = test system: Enterobacter cloacae subsp. dissolvens; assay: Antimicrobial activity against Enterobacter dissolvens by serial dilution test; format: functional
# Proteus vulgaris = assay: Antimicrobial activity against Proteus vulgaris by serial dilution test; format: functional
# [2] = Cytotoxicity against human HeLaS3 cells assessed as reduction in cell proliferation; format: functional, cell-based; conditions: HeLa S3
# Lepidium sativum [3] = assay: […] against Lepidium sativum assessed as seed germination up to 300 ug/ml; format: functional, organism-based
# Setaria italica [4] = assay: […] against Setaria italica assessed as seed germination up to 300 ug/ml; format: functional, organism-based
# Meloidogyne incognita = assay: Nematicidal activity against Meloidogyne incognita at 100 ug/ml; format: functional, organism-based
# Lepidium sativum [5] = assay: […] against Lepidium sativum assessed as inhibition of seedling growth up to 300 ug/ml; format: functional, organism-based
# Setaria italica [6] = assay: […] against Setaria italica assessed as inhibition of seedling growth up to 300 ug/ml; format: functional, organism-based
# Pyricularia grisea = assay: Antimicrobial activity against Magnaporthe grisea assessed as inhibition of conidial germination after 16 hrs by inverted microscopic analysis; format: functional
# Fusarium graminearum = assay: Antimicrobial activity against Fusarium graminearum assessed as inhibition of conidial germination after 16 hrs by inverted microscopic analysis; format: functional
# Phytophthora infestans = assay: Antimicrobial activity against Phytophthora infestans assessed as inhibition of conidial germination after 16 hrs by inverted microscopic analysis; format: functional
SMILES,Activity (Caenorhabditis elegans),IC100 (Botrytis cinerea),IC100 (Penicillium chrysogenum),IC100 (Paecilomyces variotii),IC100 (Rhizomucor miehei),zone of inhibition at 50 µg/disc (Brevibacillus brevis),zone of inhibition at 50 µg/disc (Bacillus subtilis),zone of inhibition at 50 µg/disc (Eremothecium coryli),MIC (Escherichia coli),MIC [1],MIC (Proteus vulgaris),IC50 [2],Activity (Lepidium sativum [3]),Activity (Setaria italica [4]),Activity (Meloidogyne incognita),Activity (Lepidium sativum [5]),Activity (Setaria italica [6]),IC100 (Pyricularia grisea),IC100 (Fusarium graminearum),IC100 (Phytophthora infestans)
COc1cc(O)c2c(c1)C(=O)C1=C(C2=O)C(OC)OC(C)=C1 (configuration not stated) [ASCOMYCONE A],inactive,>50 µg/mL,>50 µg/mL,>50 µg/mL,50 µg/mL,14 mm,11 mm,0 mm,> 50 µg/mL,> 50 µg/mL,> 50 µg/mL,5 µg/mL,inactive,inactive,inactive,inactive,inactive,,,
COc1cc(O)c2c(c1)C(=O)C1=C(C2=O)C(O)OC(C)=C1 (configuration not stated) [ASCOMYCONE B],inactive,5 µg/mL,10 µg/mL,>50 µg/mL,10 µg/mL,11 mm,10 mm,13 mm,> 50 µg/mL,> 50 µg/mL,> 50 µg/mL,5 µg/mL,inactive,inactive,inactive,inactive,inactive,1 µg/mL,0.5 µg/mL,5 µg/mL
CO/C=C1/C(=O)c2c(O)cc(OC)cc2C(=O)C1(O)CC(C)=O (configuration not stated) [ASCOMYCONE C],inactive,50 µg/mL,15 µg/mL,>50 µg/mL,>50 µg/mL,7 mm,0 mm,11 mm,> 50 µg/mL,> 50 µg/mL,> 50 µg/mL,50 µg/mL,inactive,inactive,inactive,inactive,inactive,2.5 µg/mL,2.5 µg/mL,5 µg/mL
